In one experiment the target is mTORC2 (Homo sapiens (Human), UniProt P42345). The experiment in a line: mTORC2 inhibitory activity: phosphorylation of AKT in A431 cells (HTRF). In kind it is cell-based. The settings on record: 3 hours at 37° C. (In general: In TR-FRET formats the signal depends on donor and acceptor labels being close together.)
Another experiment has as its target mTOR (Homo sapiens (Human), UniProt P42345). As to the kind of experiment: Inhibitory activity on mTOR kinase (LANTHASCREEN TR-FRET). Conditions: 1 hour reaction at room temperature. The format is biochemical.
Another experiment deals with mTORC1 (Homo sapiens (Human), UniProt P42345). As to the kind of experiment: mTORC1 inhibitory activity: phosphorylation of S6RP in A431 cells (HTRF). The settings on record: 3 hours at 37° C. In kind it is cell-based.

pIC50, pKi: −log10 of the molar value.

Method for mTORC1: (§1) The serial dilutions of the test molecules are added (0.1% DMSO final). After incubation for 3 hours at 37° C., the phosphorylation of the biomarkers S6RP (mTORC1) and AKT (mTORC2) is measured using the HTRF technology (Cisbio) according to the supplier's recommendations. […] The IC50 values are calculated using a 4-parameter logistic model with the aid of the XLFit software (IDBS).
Method for mTORC2: as §1

As a reminder, the pIC50 is the negative decadic logarithm of the IC50, by convention in mol/L. In general, pKi refers to the negative decadic logarithm of the Ki, by convention in mol/L. A lower pKi goes with a large Ki. On to `CC(C)C[C@H](C)n1nc(-c2cc3nc(N)oc3cc2F)c2c(N)nc(N)nc21` [Example 2, 3-(2-amino-6-fluorobenzoxazol-5-yl)-1-((S)-1,3-dimethylbutyl)-1H-pyrazolo[3,4-d]pyrimidine-4,6-diamine], for which the pIC50 is 8.68 on mTORC2 and 8.92 against mTORC1. The molecule also gave a pKi at mTOR of 9.00.
As for `CC1(Cn2nc(-c3cc4nc(N)oc4cc3F)c3c(N)nc(N)nc32)CCC1` [Example 4, 3-(2-amino-6-fluorobenzoxazol-5-yl)-1-(1-methylcyclobutylmethyl)-1H-pyrazolo[3,4-d]pyrimidine-4,6-diamine], the negative logarithm of the IC50 (pIC50) at mTORC2 is 8.47; against mTORC1 it was 8.89.
In the case of `CCC(C)(C)Cn1nc(-c2ccc3oc(N)nc3c2)c2c(N)nc(N)nc21` [Example 8, 3-(2-aminobenzoxazol-5-yl)-1-(2,2-dimethylbutyl)-1H-pyrazolo[3,4-d]pyrimidine-4,6-diamine], the pIC50 against mTORC2 is 8.52; against mTORC1, 8.92. The same molecule showed a negative logarithm of the Ki (pKi) at mTOR of 9.22.
The like results for `CCNc1nc2cc(-c3nn(CC(C)(C)C)c4nc(N)nc(N)c34)ccc2o1` [Example 11, 1-(2,2-dimethylpropyl)-3-(2-ethylaminobenzoxazol-5-yl)-1H-pyrazolo[3,4-d]pyrimidine-4,6-diamine] were, in that order, 8.23, 8.30 and 9.10.
In the same order, the values of `C=CC(C)(C)Cn1nc(-c2ccc3oc(N)nc3c2)c2c(N)nc(N)nc21` [Example 12, 3-(2-aminobenzoxazol-5-yl)-1-(2,2-dimethylbut-3-enyl)-1H-pyrazolo[3,4-d]pyrimidine-4,6-diamine] are 8.43, 8.96 and 8.92.
Regarding `CC(C)(Cn1nc(-c2ccc3oc(N)nc3c2)c2c(N)nc(N)nc21)[C@@H]1CCCO1` [Example 13, (+)-3-(2-aminobenzoxazol-5-yl)-1-((S)-2-methyl-2-tetrahydrofuran-2-ylpropyl)-1H-pyrazolo[3,4-d]pyrimidine-4,6-diamine], the negative logarithm of the IC50 (pIC50) against mTORC2 is 8.39; at mTORC1 it was 8.85. On mTOR, this molecule gave a negative logarithm of the Ki (pKi) of 8.92.
The like results for `C#CC(C)(C)Cn1nc(-c2ccc3oc(N)nc3c2)c2c(N)nc(N)nc21` [Example 14, 3-(2-aminobenzoxazol-5-yl)-1-(2,2-dimethylbut-3-ynyl)-1H-pyrazolo[3,4-d]pyrimidine-4,6-diamine] were, in that order, 8.42, 8.92 and 8.92.
In the case of `CC(C)(CO)Cn1nc(-c2ccc3oc(N)nc3c2)c2c(N)nc(N)nc21` [Example 15, 3-[4,6-diamino-3-(2-aminobenzoxazol-5-yl)pyrazolo[3,4-d]pyrimidin-1-yl]-2,2-dimethylpropan-1-ol], the negative logarithm of the IC50 (pIC50) is 8.14 at mTORC2 and 8.77 against mTORC1. Further, the pKi on mTOR was 8.82.
Regarding `CSC(C)(C)Cn1nc(-c2ccc3oc(N)nc3c2)c2c(N)nc(N)nc21` [Example 16, 3-(2-aminobenzoxazol-5-yl)-1-(2-methyl-2-methylsulfanylpropyl)-1H-pyrazolo[3,4-d]pyrimidine-4,6-diamine], the pIC50 was 7.99 on mTORC2 and 8.66 on mTORC1. Besides, the pKi at mTOR was 8.77.
In the same order, the values of `CC(C)(C)Cn1nc(-c2ccc3oc(N)nc3c2Cl)c2c(N)nc(N)nc21` [Example 17, 3-(2-amino-4-chlorobenzoxazol-5-yl)-1-(2,2-dimethylpropyl)-1H-pyrazolo[3,4-d]pyrimidine-4,6-diamine] are 8.40, 8.92 and 8.74.
Turning to `COc1cc2oc(N)nc2cc1-c1nn(CC(C)(C)C)c2nc(N)nc(N)c12` [Example 18, 3-(2-amino-6-methoxybenzoxazol-5-yl)-1-(2,2-dimethylpropyl)-1H-pyrazolo[3,4-d]pyrimidine-4,6-diamine], the pIC50 is 8.37 against mTORC2 and 8.68 against mTORC1. The pKi on mTOR was 8.68.
With `CC(C)(C)Cn1nc(-c2cc3cc(O)cnc3[nH]2)c2c(N)nc(N)nc21` [Example 19, 2-[4,6-diamino-1-(2,2-dimethylpropyl)-1H-pyrazolo[3,4-d]pyrimidin-3-yl]-1H-pyrrolo[2,3-b]pyridin-5-ol], the results for the negative logarithm of the IC50 (pIC50) against mTORC2 and against mTORC1 were 7.18 and 7.56, respectively. This molecule also gave a negative-log Ki (pKi) at mTOR of 8.64.
The like results for `CCC(C)(C)Cn1nc(-c2cc3nc(N)oc3cc2OC)c2c(N)nc(N)nc21` [Example 20, 3-(2-amino-6-methoxybenzoxazol-5-yl)-1-(2,2-dimethylbutyl)-1H-pyrazolo[3,4-d]pyrimidine-4,6-diamine] were, in that order, 8.15, 8.68 and 8.54.
`CC(C)n1nc(-c2ccc3oc(N)nc3c2)c2c(N)nc(N)nc21` [Example 21, 3-(2-aminobenzoxazol-5-yl)-1-isopropyl-1H-pyrazolo[3,4-d]pyrimidine-4,6-diamine]: the figures for the pIC50 against mTORC2 and against mTORC1 were 7.97 and 8.42, respectively. This molecule also had a negative logarithm of the Ki (pKi) on mTOR of 8.42.
Regarding `CCC(CC)(Cn1nc(-c2ccc3oc(N)nc3c2)c2c(N)nc(N)nc21)S(C)(=O)=O` [Example 22, 3-(2-aminobenzoxazol-5-yl)-1-(2-ethyl-2-methanesulfonylbutyl)-1H-pyrazolo[3,4-d]pyrimidine-4,6-diamine], the pIC50 was 7.58 against mTORC2 and 7.99 against mTORC1. The molecule further gave a pKi on mTOR of 8.41.
The like results for `CC(C)Cn1nc(-c2ccc3oc(N)nc3c2)c2c(Cl)nc(N)nc21` [Example 23, 3-(2-aminobenzoxazol-5-yl)-4-chloro-1-isobutyl-1H-pyrazolo[3,4-d]pyrimidin-6-ylamine] were, in that order, 8.23, 8.55 and 8.24.
Turning to `CC(C)n1nc(-c2ccc3oc(N)nc3c2)c2cnc(N)nc21` [Example 24, 3-(2-aminobenzoxazol-5-yl)-1-isopropyl-1H-pyrazolo[3,4-d]pyrimidin-6-ylamine], the pIC50 at mTORC2 is 7.81; against mTORC1 it was 8.17. The same molecule gave a negative-log Ki (pKi) on mTOR of 8.21.
In the same order, the values of `CC(C)[C@H](C)n1nc(-c2cc3nc(N)oc3cc2Cl)c2c(N)nc(N)nc21` [Example 25, 3-(2-amino-6-chlorobenzoxazol-5-yl)-1-((S)-1,2-dimethylpropyl)-1H-pyrazolo[3,4-d]pyrimidine-4,6-diamine] are 7.88, 8.35 and 8.09.
In the same order, the values of `CNc1nc(N)c2c(-c3ccc4oc(N)nc4c3)nn(C(C)C)c2n1` [Example 26, 3-(2-Aminobenzoxazol-5-yl)-1-isopropyl-N^6-methyl-1H-pyrazolo[3,4-d]pyrimidine-4,6-diamine] are 7.21, 7.53 and 7.87.
As for `Cc1nc(N)nc2c1c(-c1ccc3oc(N)nc3c1)nn2CC(C)(C)C` [Example 27, 5-(6-amino-4-methyl-1-neopentyl-1H-pyrazolo[3,4-d]pyrimidin-3-yl)benzo[d]oxazol-2-amine], the negative-log IC50 (pIC50) on mTORC2 was 7.82; at mTORC1 it was 8.09. At mTOR, this molecule showed a negative-log Ki (pKi) of 7.84.
In the same order, the values of `CC(C)n1nc(-c2ccc3oc(NC4CC4)nc3c2)c2c(N)nc(N)nc21` [Example 28, 3-(2-cyclopropylaminobenzoxazol-5-yl)-1-isopropyl-1H-pyrazolo[3,4-d]pyrimidine-4,6-diamine] are 7.40, 7.36 and 7.68.
The like results for `CCC(C)(C)Cn1nc(-c2cc(C)c3oc(N)nc3c2)c2c(N)nc(N)nc21` [Example 29, 3-(2-amino-7-methylbenzoxazol-5-yl)-1-(2,2-dimethylbutyl)-1H-pyrazolo[3,4-d]pyrimidine-4,6-diamine] were, in that order, 6.13, 6.63 and 6.99.

(Values after patent publication US11731973B2, “Substituted pyrazolo[3,4-d]pyrimidines as mTOR inhibitors” (GALDERMA RESEARCH & DEVELOPMENT, priority 2018, dated 2023).)
